Data published in patent publication US4960883A, “Piperazines and homopiperazines” (Kowa Company, Ltd., priority 1988, dated 1990).

Test system: Rabbit PRP, ADP-induced platelet aggregation
Test: Inhibitory effect on ADP-induced platelet aggregation
Assay type: cell-based
Conditions: ADP (2 μm); for Platelet aggregation inhibitory concentration: concentration at which the inhibition rate (%) in parentheses was found
Procedure: (B) Inhibitory effect on ADP-induced platelet aggregation
Rabbit PRP (250 μl) was preincubated with drug samples ([…]) of aqueous solution or 1 µl of DMSO solution) at 37° C. for 1 minute, and ADP (2 μm)-induced platelet aggregation was measured by aggregometer (NKK HEMA TRACERl Model PAT-4M). Inhibitory effects of the drugs were estimated from the standard curve of maximal aggregation.

| Structure (SMILES) | Platelet aggregation inhibition rate (%) in the parentheses (at 10^-5 mole/liter) [%] | Platelet aggregation inhibitory concentration | Platelet aggregation inhibition rate (%) in the parentheses (at 10^-4 mole/liter) [%] |
| --- | --- | --- | --- |
| COc1ccc(S(=O)(=O)N2CCN(CC(COCC(C)C)N(C)Cc3ccccc3)CC2)cc1OC (stereo not drawn) [Example 1, 1-(3,4-dimethoxybenzenesulfonyl)-4-(3-isobutoxy-2-methylbenzylaminopropyl)-piperazine] | 12 | 10^-5 mole/liter |  |
| CC(C)COCC(CN1CCCN(S(=O)(=O)c2ccccc2)CC1)N(C)Cc1ccccc1 (stereo not drawn) [Example 2, 1-benzenesulfonyl-4-(3-isobutoxy-2-methylbenzylaminopropyl)homopiperazine] |  | 10^-4 mole/liter | 60 |
| CC(C)COCC(CN1CCN(C(=O)CCO[N+](=O)[O-])CC1)N(C)Cc1ccccc1 (stereo not drawn) [Example 7] |  | 10^-4 mole/liter | 33 |
| CC(C)COCC(CN1CCN(S(=O)(=O)c2cccc3c(Cl)cccc23)CC1)N(C)Cc1ccccc1 (stereo not drawn) [Example 9] | 8 | 10^-5 mole/liter |  |
| CC(C)COCC(CN1CCN(S(C)(=O)=O)CC1)N(C)Cc1ccccc1 (stereo not drawn) [Example 10] |  | 10^-4 mole/liter | 35 |
| CC(C)COCC(CN1CCN(S(=O)(=O)c2ccccc2)CC1)N(C)Cc1ccccc1 (stereo not drawn) [Example 11] |  | 10^-4 mole/liter | 33 |
